Assays:
AsPC-1 cells = test: AsPC-1 cell proliferation assay (CellTiter Glo); type: cell-based; details: Homo sapiens, ASPC1, 144 h, 6 days
Procedure, shortened: (§1)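 Read-outs were KRAS G12D immunofluorescence against β-actin after 24 h (DC50) and CellTiter Glo luminescence after 6 days (IC50). Compounds were titrated 1:3 from […] to 1.5 nM final on AsPC-1 cells at 37 °C, 5% CO2.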

KRAS (G12D) = molecular target: T1, KRAS (G12D) (Homo sapiens, UniProt P01116, G12D); test: KRAS (G12D) cellular degradation assay in AsPC-1 cells; type: cell-based; details: 24 hours, antibody fluorescence (Odyssey CLX), DC50 half-maximal degradation concentration
T1 construct: in-cell western with KRAS G12D antibody after 24 h
T1 sequence (P01116 1-188 isoform P01116-2 G12D): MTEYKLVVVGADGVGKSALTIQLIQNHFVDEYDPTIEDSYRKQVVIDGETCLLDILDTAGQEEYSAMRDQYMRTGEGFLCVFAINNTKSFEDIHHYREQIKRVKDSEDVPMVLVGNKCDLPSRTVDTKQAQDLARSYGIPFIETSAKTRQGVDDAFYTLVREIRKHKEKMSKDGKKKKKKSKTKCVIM
Procedure, shortened: as §1

Structure (SMILES)	IC50 (AsPC-1 cells)	DC50 (KRAS (G12D))
CCn1nccc1-c1ccc([C@@H](NC(=O)[C@@H]2C[C@@H](O)CN2C(=O)[C@H](C(C)C)n2cc(-c3ccc(COc4c(-c5c(C)c(F)cc6n[nH]cc56)c(C5CC5)cc5c(N6C[C@@H]7C[C@H]6CN7)nc(OC6CCOCC6)nc45)cc3)nn2)[C@H](C)O)c2c1CC2 [Example 84, (2S,4R)-1-((2S)-2-(4-(4-(((4-((1S,4S)-2,5-diazabicyclo[2.2.1]heptan-2-yl)-6-cyclopropyl-7-(6-fluoro-5-methyl-1H-indazol-4-yl)-2-((tetrahydro-2H-pyran-4-yl)oxy)quinazolin-8-yl)oxy)methyl)phenyl)-1H-1,2,3-triazol-1-yl)-3-methylbutanoyl)-N-((1R,2S)-1-(5-(1-ethyl-1H-pyrazol-5-yl)bicyclo[4.2.0]octa-1(6),2,4-trien-2-yl)-2-hydroxypropyl)-4-hydroxypyrrolidine-2-carboxamide]	< 10 nM	< 10 nM
CCn1nccc1-c1ccc([C@@H](NC(=O)[C@@H]2C[C@@H](O)CN2C(=O)[C@H](C(C)C)n2cc(-c3ccc(COc4c(-c5c(C)c(F)cc6[nH]ncc56)c(C5CC5)cc5c(N6C[C@@H]7C[C@H]6CN7)nc(OC[C@H](C)OC)nc45)cc3)nn2)[C@H](C)O)c2c1CC2 [Example 85, (2S,4R)-1-((2S)-2-(4-(4-(((4-((1S,4S)-2,5-diazabicyclo[2.2.1]heptan-2-yl)-6-cyclopropyl-7-(6-fluoro-5-methyl-1H-indazol-4-yl)-2-((S)-2-methoxypropoxy)quinazolin-8-yl)oxy)methyl)phenyl)-1H-1,2,3-triazol-1-yl)-3-methylbutanoyl)-N-((1R,2S)-1-(5-(1-ethyl-1H-pyrazol-5-yl)bicyclo[4.2.0]octa-1(6),2,4-trien-2-yl)-2-hydroxypropyl)-4-hydroxypyrrolidine-2-carboxamide]	< 10 nM	< 10 nM
CCn1nccc1-c1ccc([C@H](CO)NC(=O)[C@@H]2C[C@@H](O)CN2C(=O)[C@H](C(C)C)n2cc(-c3ccc(COc4c(-c5c(C)c(F)cc6[nH]ncc56)c(C5CC5)cc5c(N6C[C@@H]7C[C@H]6CN7)nc(OC6CCC(OC)C6)nc45)cc3)nn2)cc1 (stereo partly drawn) [Example 86, (2S,4R)-1-((2S)-2-(4-(4-(((4-((1S,4S)-2,5-diazabicyclo[2.2.1]heptan-2-yl)-6-cyclopropyl-7-(6-fluoro-5-methyl-1H-indazol-4-yl)-2-((3-methoxycyclopentyl)oxy)quinazolin-8-yl)oxy)methyl)phenyl)-1H-1,2,3-triazol-1-yl)-3-methylbutanoyl)-N—((R)-1-(4-(1-ethyl-1H-pyrazol-5-yl)phenyl)-2-hydroxyethyl)-4-hydroxypyrrolidine-2-carboxamide]	< 10 nM	< 10 nM
CCn1nccc1-c1ccc([C@@H](NC(=O)[C@@H]2C[C@@H](O)CN2C(=O)[C@H](C(C)C)n2cc(-c3ccc(COc4c(-c5c(C)c(F)cc6[nH]ncc56)c(C5CC5)cc5c(N6C[C@@H]7C[C@H]6CN7)nc(OC6CCC7(CC6)COC7)nc45)cc3)nn2)[C@H](C)O)cc1 [Example 87, (2S,4R)-1-((2S)-2-(4-(4-(((2-((2-oxaspiro[3.5]nonan-7-yl)oxy)-4-((1S,4S)-2,5-diazabicyclo[2.2.1]heptan-2-yl)-6-cyclopropyl-7-(6-fluoro-5-methyl-1H-indazol-4-yl)quinazolin-8-yl)oxy)methyl)phenyl)-1H-1,2,3-triazol-1-yl)-3-methylbutanoyl)-N-((1R,2S)-1-(4-(1-ethyl-1H-pyrazol-5-yl)phenyl)-2-hydroxypropyl)-4-hydroxypyrrolidine-2-carboxamide]	< 10 nM	< 10 nM
CCn1nccc1-c1ccc([C@@H](NC(=O)[C@@H]2C[C@@H](O)CN2C(=O)[C@H](C(C)C)n2cc(-c3ccc(COc4c(-c5c(C)c(F)cc6[nH]ncc56)c(C5CCC5)cc5c(N6C[C@@H]7C[C@H]6CN7)nc(OC[C@H](C)OC)nc45)cc3)nn2)[C@H](C)O)cc1 [Example 88, (2S,4R)-1-((2S)-2-(4-(4-(((4-((1S,4S)-2,5-diazabicyclo[2.2.1]heptan-2-yl)-6-cyclobutyl-7-(6-fluoro-5-methyl-1H-indazol-4-yl)-2-((S)-2-methoxypropoxy)quinazolin-8-yl)oxy)methyl)phenyl)-1H-1,2,3-triazol-1-yl)-3-methylbutanoyl)-N-((1R,2S)-1-(4-(1-ethyl-1H-pyrazol-5-yl)phenyl)-2-hydroxypropyl)-4-hydroxypyrrolidine-2-carboxamide]	< 10 nM	< 10 nM
CCn1nccc1-c1ccc([C@@H](NC(=O)[C@@H]2C[C@@H](O)CN2C(=O)[C@H](C(C)C)n2cc(-c3ccc(COc4c(-c5c(C)c(F)c(F)c6[nH]ncc56)c(C5CC5)cc5c(N6C[C@@H]7C[C@H]6CN7)nc(OC[C@H](C)OC)nc45)cc3)nn2)[C@H](C)O)cc1 [Example 89, (2S,4R)-1-((2S)-2-(4-(4-(((4-((1S,4S)-2,5-diazabicyclo[2.2.1]heptan-2-yl)-6-cyclopropyl-7-(6,7-difluoro-5-methyl-1H-indazol-4-yl)-2-((S)-2-methoxypropoxy)quinazolin-8-yl)oxy)methyl)phenyl)-1H-1,2,3-triazol-1-yl)-3-methylbutanoyl)-N-((1R,2S)-1-(4-(1-ethyl-1H-pyrazol-5-yl)phenyl)-2-hydroxypropyl)-4-hydroxypyrrolidine-2-carboxamide]	< 10 nM	< 10 nM
CO[C@@H](C)COc1nc(N2C[C@@H]3C[C@H]2CN3)c2cc(C3CC3)c(-c3c(C)c(F)c(F)c4[nH]ncc34)c(OCc3ccc(-c4cn([C@H](C(=O)N5C[C@H](O)C[C@H]5C(=O)N[C@H](c5ccc(-c6scnc6C)cc5)[C@H](C)O)C(C)C)nn4)cc3)c2n1 [Example 90, (2S,4R)-1-((2S)-2-(4-(4-(((4-((1S,4S)-2,5-diazabicyclo[2.2.1]heptan-2-yl)-6-cyclopropyl-7-(6,7-difluoro-5-methyl-1H-indazol-4-yl)-2-((S)-2-methoxypropoxy)quinazolin-8-yl)oxy)methyl)phenyl)-1H-1,2,3-triazol-1-yl)-3-methylbutanoyl)-4-hydroxy-N-((1R,2S)-2-hydroxy-1-(4-(4-methylthiazol-5-yl)phenyl)propyl)pyrrolidine-2-carboxamide]	< 10 nM	< 10 nM
CO[C@@H](C)COc1nc(N2C[C@@H]3C[C@H]2CN3)c2cc(C3CC3)c(-c3c(C)c(F)cc4[nH]ncc34)c(OCc3ccc(-c4cn([C@H](C(=O)N5C[C@H](O)C[C@H]5C(=O)N[C@H](C#Cc5cccc6ncsc56)CO)C(C)C)nn4)cc3)c2n1 [Example 92, (2S,4R)-1-((2S)-2-(4-(4-(((4-((1S,4S)-2,5-diazabicyclo[2.2.1]heptan-2-yl)-6-cyclopropyl-7-(6-fluoro-5-methyl-1H-indazol-4-yl)-2-((S)-2-methoxypropoxy)quinazolin-8-yl)oxy)methyl)phenyl)-1H-1,2,3-triazol-1-yl)-3-methylbutanoyl)-N—((R)-4-(benzo[d]thiazol-7-yl)-1-hydroxybut-3-yn-2-yl)-4-hydroxypyrrolidine-2-carboxamide]	< 10 nM	< 10 nM
Cc1ncsc1-c1ccc([C@H](CO)NC(=O)[C@@H]2C[C@@H](O)CN2C(=O)[C@H](C(C)C)n2cc(-c3ccc(COc4c(-c5c(C)c(F)cc6[nH]ncc56)c(C5CC5)cc5c(N6C[C@@H]7C[C@H]6CN7)nc(OC6CC7COCC7C6)nc45)cc3)nn2)cc1 (stereo partly drawn) [Example 93, (2S,4R)-1-((2S)-2-(4-(4-(((4-((1S,4S)-2,5-diazabicyclo[2.2.1]heptan-2-yl)-6-cyclopropyl-7-(6-fluoro-5-methyl-1H-indazol-4-yl)-2-((hexahydro-1H-cyclopenta[c]furan-5-yl)oxy)quinazolin-8-yl)oxy)methyl)phenyl)-1H-1,2,3-triazol-1-yl)-3-methylbutanoyl)-4-hydroxy-N—((R)-2-hydroxy-1-(4-(4-methylthiazol-5-yl)phenyl)ethyl)pyrrolidine-2-carboxamide]	< 10 nM	< 10 nM
Cc1ncsc1-c1ccc([C@H](CO)NC(=O)[C@@H]2C[C@@H](O)CN2C(=O)[C@H](C(C)C)n2cc(-c3ccc(COc4c(-c5c(C)c(F)cc6[nH]ncc56)c(C5CCC5)cc5c(N6C[C@@H]7C[C@H]6CN7)nc(OC6CCOCC6)nc45)cc3)nn2)cc1 [Example 94, (2S,4R)-1-((2S)-2-(4-(4-(((4-((1S,4S)-2,5-diazabicyclo[2.2.1]heptan-2-yl)-6-cyclobutyl-7-(6-fluoro-5-methyl-1H-indazol-4-yl)-2-((tetrahydro-2H-pyran-4-yl)oxy)quinazolin-8-yl)oxy)methyl)phenyl)-1H-1,2,3-triazol-1-yl)-3-methylbutanoyl)-4-hydroxy-N—((R)-2-hydroxy-1-(4-(4-methylthiazol-5-yl)phenyl)ethyl)pyrrolidine-2-carboxamide]	< 10 nM	< 10 nM
CCn1nccc1-c1ccc([C@@H](NC(=O)[C@@H]2C[C@@H](O)CN2C(=O)[C@H](C(C)C)n2cc(-c3ccc(COc4c(-c5c(C)c(F)cc6[nH]ncc56)c(C5CC5)cc5c(N6C[C@@H]7C[C@H]6CN7)nc(OC[C@H](C)OC)nc45)cc3)nn2)[C@@H](O)C(C)C)cc1 [Example 95, (2S,4R)-1-((2S)-2-(4-(4-(((4-((1S,4S)-2,5-diazabicyclo[2.2.1]heptan-2-yl)-6-cyclopropyl-7-(6-fluoro-5-methyl-1H-indazol-4-yl)-2-((S)-2-methoxypropoxy)quinazolin-8-yl)oxy)methyl)phenyl)-1H-1,2,3-triazol-1-yl)-3-methylbutanoyl)-N-((1R,2S)-1-(4-(1-ethyl-1H-pyrazol-5-yl)phenyl)-2-hydroxy-3-methylbutyl)-4-hydroxypyrrolidine-2-carboxamide]	< 10 nM	< 10 nM
